Consider 34 compounds from PubChem BioAssay AID540252 (Sanford-Burnham Center for Chemical Genomics, 2011).

Calls of active or inactive are those of the source. The rule behind the calls is not given here.

The experiment deals with glucose-6-phosphate dehydrogenase-6-phosphogluconolactonase (Plasmodium falciparum 3D7). Kind of experiment: PfG6PD enzyme inhibitors, direct NADPH readout, dose response, orthogonal assay, biochemical, end-point NADPH detection (AID 540252). Conditions: purified PfG6PD enzyme.
For the compound `Cc1cc(C)c2c(=O)n(CC(=O)Nc3ccc(Br)c(C)c3)sc2n1`, the IC50 (in general, the point on the concentration scale where inhibition reaches its midpoint) was > 80 µM (inactive).

As to `Cc1nn(-c2ccccc2)c(Cl)c1/C=N/Nc1nc2ccccc2n1C`, the IC50 is > 80 µM (inactive).

Take `COCCn1nnnc1C(c1cc2cc(OC)c(OC)cc2[nH]c1=O)N1CCN(c2ccc(O)cc2)CC1` (centres undefined): the IC50 was > 80 µM (inactive).

For `O=C(COC(=O)c1cnccn1)c1ccc([N+](=O)[O-])cc1`, the IC50 was 54.9 µM.

In the case of `CC(C)c1cc2c(c(O)c1O)[C@@]13CCCC(C)(C)C1CC2OC3=O` (some centres undefined), the IC50 is > 80 µM (inactive).

On to `CCNc1ccccc1CP(=O)(c1ccccc1)c1ccccc1O` (centres undefined), for which the IC50 was > 80 µM (inactive).

Regarding `Oc1cc(-n2cccn2)c(O)cc1-n1cccn1`, the IC50 was > 80 µM (inactive).

On to `Cc1ccc(S(=O)(=O)NNc2ccccc2)cc1`, for which the IC50 was 37.9 µM.

As for `CCc1cc(-c2n[nH]c(C)c2-c2ccccc2Cl)c(O)cc1OC`, the IC50 is > 80 µM (inactive).

Turning to `Cc1ccc(-c2c(C(=O)N/N=C/c3ccsc3)nnn2-c2nonc2N)cc1`, the IC50 is > 80 µM (inactive).

Take `Cc1ccc(S(=O)(=O)Nc2nc(C)c(C(=O)N/N=C/c3ccccc3)s2)cc1`: the IC50 is > 80 µM (inactive).

In the case of `Cc1cc(C)c2sc(NC(=O)C3=COCCO3)nc2c1`, the IC50 is > 80 µM (inactive).

For the compound `N#C/C(C(=O)Nc1ccc(Cl)cc1)=C(/S)Nc1ccccc1`, the IC50 is > 80 µM (inactive).

On to `CCS(=O)(=O)N1CCN(c2ccc([N+](=O)[O-])c(NC(C)c3ccccc3)c2)CC1` (centres undefined), for which the IC50 is > 80 µM (inactive).

For the compound `Cc1ccc(S(=O)(=O)SCCCSS(=O)(=O)c2ccc(C)cc2)cc1`, the half-maximal inhibitory concentration (IC50) is 38.8 µM.

As to `CC(C)(C)c1ccc(O)c(O)c1`, the IC50 was 54.8 µM.

Consider `O=C(CBr)c1ccc([N+](=O)[O-])c(CS(=O)(=O)c2ccc(Cl)cc2)c1`, for which the 50% inhibitory concentration (IC50) is 42.5 µM.

For the compound `C=CCN1CCc2cccc3c2[C@H]1Cc1ccc(O)c(O)c1-3`, the IC50 is > 80 µM (inactive).

Consider `CCOC(=O)c1c(OCC)[nH]c2c1cc(O)c1ccccc12`, for which the IC50 was > 80 µM (inactive).

For `S=C(NN=Cc1ccccn1)N(Cc1ccccn1)Cc1ccccn1`, the IC50 was > 80 µM (inactive).

`O=C(Cn1sc2ccccc2c1=O)Nc1ccc(Cl)cc1`: the IC50 is 15.2 µM.

With `Cc1cccc(C(=O)Nc2nnc(S(=O)(=O)N3CCCCCC3)s2)c1`, the IC50 was > 80 µM (inactive).

As for `O=C1C=CC(=O)N1c1ccc(-c2nc3ccccc3o2)cc1`, the IC50 was > 80 µM (inactive).

As for `C=C1C(=O)O[C@@H]2C[C@@H](C)[C@@H]3C=CC(=O)[C@@]3(C)[C@@H](OC(=O)CC(=O)O[C@H]3[C@@H]4C(=C)C(=O)O[C@@H]4C[C@@H](C)[C@@H]4C=CC(=O)[C@]43C)[C@H]12`, the IC50 was > 80 µM (inactive).

In the case of `COC1=C(OC)C(=O)C(Sc2ccc3ccccc3c2)=CC1=O`, the concentration for half-maximal inhibition (IC50) is 30.2 µM.

With `COc1cc(C(=O)ON=C2C=C(C)C(=O)C(C)=C2)cc(OC)c1OC`, the IC50 was > 80 µM (inactive).

As for `CCOc1cc(NCc2ccccc2)c2ncn(C(C)C)c2c1`, the IC50 is > 80 µM (inactive).

Consider `CCn1c(SCC(=O)Nc2ccccc2OC)nnc1-c1cnccn1`, for which the IC50 was > 80 µM (inactive).

Regarding `COc1cc(CN2CCCC(C(=O)c3ccc4c5c(cccc35)CC4)C2)cc(OC)c1O` (centres undefined), the IC50 was > 80 µM (inactive).

On to `C[C@H](NC(N)=O)C(=O)Nc1ccc(N2CCOCC2)c(S(=O)(=O)Nc2ccc(Cl)cc2)c1`, for which the IC50 is > 80 µM (inactive).

`Cc1nc2c(o1)C(=O)c1ccccc1C2=Nc1ccccc1`: the IC50 is > 80 µM (inactive).

Regarding `C[C@]12CC[C@@H]3c4cc(O)c(O)cc4CC[C@H]3[C@@H]1CC[C@@H]2O`, the 50% inhibitory concentration (IC50) was 38 µM.

On to `O=C1NC(=O)C(=Cc2ccc(-c3ccccc3[N+](=O)[O-])o2)C(=O)N1`, for which the IC50 is > 80 µM (inactive).

Consider `COc1cc(CNc2ccc3[nH]c(=O)[nH]c3c2)ccc1OCc1ccccc1`, for which the IC50 is > 80 µM (inactive).
